# Measured values: patent US7094869B2, “Low molecular weight peptidomimetic growth hormone secretagogues” (Genentech, Inc., priority 1994, dated 2006)
# “Also recorded” adds a separate entry of the source. Where two headings read alike, the source gives them in different places. Non-standard residues stand in square brackets, D forms with d. Residues, ends and D or L forms follow the SMILES beside them. No end group written: not given here.
# How the values were obtained:
# rat pituitary cell = conditions: cited from earlier work
# growth hormone secretion = assay: GHRP induced growth hormone secretion, intravenous administration (Rat IV); format: in vivo; conditions: Table II; iv tail vein injection, anesthetized weanling female rats, serum GH 10 min after injection
# Outline: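 Female Sprague Dawley rats (24-30 days, 50-90 g) under intraperitoneal pentobarbitone received graded intravenous tail-vein peptide doses in pH 5.0 sodium acetate/mannitol buffer 20 min post-anaesthesia. Blood by cardiac puncture 10 min after dosing; serum GH measured by rat GH ELISA in duplicate.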
# rat pituitary cells [1] = biological target: T1, rat pituitary cells (Rattus norvegicus, UniProt O08725)
# Outline: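 Primary rat anterior pituitary cells, cultured three days in DME low glucose/10% FBS, were washed, pre-incubated twice for 15 min, then challenged 15 min with test compounds (DMSO ≤0.1%) at 37 °C. Released GH was measured by two-site ELISA; EC50 came from 4-parameter fits, mean of three to four independent determinations.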
# ACTH = ACTH release from pituitary cells (RIA); format: cell-based, rat
# Method: Dispersion: Adult female Sprague-Dawley (160-180 g., Charles River) rats were group-caged in a 12:12 light:dark cycle with food and water available ad libitum. Pituitaries from ten rats were removed, the posterior pituitary discarded and the anterior pituitary placed in Hanks' Balanced Salt Solution (HBSS: without calcium chloride, w/o magnesium chloride, w/o magnesium sulfate; Gibco) containing 20 mM HEPES (Gibco) and 100 U/ml penicillin streptomycin (PS: JRH Biosciences). Under sterile conditions, pituitaries were rinsed twice then minced into small fragments with a razor blade. Fragments were resuspended in 5 ml of HBSS/HEPES containing 20 mg collagenase (Serva 17449) and […] of 1 mg/ml DNase (Sigma) for a 40 min. incubation in a 37° C. gyrotory water bath shaker (New Brunswick Scientific Model G76; setting 10). After the incubation, fragments were triturated to yield small clumps and single cells. The cells were centrifuged 1000× g for 5 min, resuspended, counted and plated at a final cell concentration of 100,000 cells/ml. Incubation media was DME low glucose media w/NaHCO3 (Gibco) containing 20 mM hepes, 100 U/ml PS and 10% FBS (Hyclone A-111-L). Cells were plated at 0.5 ml per well in 48 well plates (Falcon) and incubated at 37° C. in 5% C02 for three days. For challenges to determine release of other pituitary hormones cells were plated at 200,000 cells per ml with 2 ml per well of a Swell plate (Corning). Challenge: A (inip)bbFK-NH2 stock (or other GHRP) concentration of 1 mM was made in DMSO and diluted with warmed media approximately 30 min prior to use. The highest concentration of DMSO in media was 0.1%. […] STATISTICS: The mean for each group was determined and analyzed by one-way analysis of variance with a post-hoc Student-Newman-Keuls. […] The EC50 was calculated using a 4-parameter curve-fit program (Kaleidagraph). […] RIA of pituitary hormones: LH, FSH, TSH, and Prolactin were determined with commercially available kits from Amersham, and ACTH levels were determined by a RIA kit from ICN. […]
# [2] = Combination GHRP and IGF-1 treatment of normal rats (7 days); format: in vivo, rat; conditions: 7 days, twice daily sc injections, normal adult female rats; GHRH 300, GHRPs 50, L-692,585 150 μg/dose
# Method: The rats were weighed on the day of surgery and randomized into 12 groups of 5/group using a grouping program.
# The GH secretagogues were given by sc. injection twice daily, each dose of 100 μl. […] Recombinant human IGF-1 (rhIGF-1) at 2.5 mg/ml in acetate buffer was loaded into osmotic minipumps (Alza, Palo Alto, model 2ML1, pump rate 10.16 μl/hr for 7 days, fill volume 2086 μl). Other pumps were filled with acetate buffer. […] The delivered dose of rhIGF-1 was therefore 610 μg/day.
# The next day the osmotic pumps were inserted into rats. […] All rats not receiving rhIGF-1 containing pumps were implanted with pumps delivering the acetate buffer excipient. […] The treatment groups were;
# The rats were sacrificed using carbon dioxide, bled from the heart and organs taken. Serum chemistries were measured by standard automated procedures.
# [3] = oral; cited from earlier work
# rat pituitary cells [4] = biological target: T1, rat pituitary cells; assay: Rat “pit” cell challenges: combinations with GHRP-6/GHRH, desensitization, somatostatin suppression, GHRP antagonist; format: cell-based
# Method: Dispersion: Adult female Sprague-Dawley (160-180 g., Charles River) rats were group-caged in a 12:12 light:dark cycle with food and water available ad libitum. Pituitaries from ten rats were removed, the posterior pituitary discarded and the anterior pituitary placed in Hanks' Balanced Salt Solution (HBSS: without calcium chloride, w/o magnesium chloride, w/o magnesium sulfate; Gibco) containing 20 mM HEPES (Gibco) and 100 U/ml penicillin streptomycin (PS: JRH Biosciences). Under sterile conditions, pituitaries were rinsed twice then minced into small fragments with a razor blade. Fragments were resuspended in 5 ml of HBSS/HEPES containing 20 mg collagenase (Serva 17449) and 200 ml of 1 mg/ml DNase (Sigma) for a 40 min. incubation in a 37° C. gyrotory water bath shaker (New Brunswick Scientific Model G76; setting 10). After the incubation, fragments were triturated to yield small clumps and single cells. The cells were centrifuged 1000× g for 5 min, resuspended, counted and plated at a final cell concentration of 100,000 cells/ml. Incubation media was DME low glucose media w/NaHCO3 (Gibco) containing 20 mM hepes, 100 U/ml PS and 10% FBS (Hyclone A-111-L). Cells were plated at 0.5 ml per well in 48 well plates (Falcon) and incubated at 37° C. in 5% C02 for three days. […] The highest concentration of DMSO in media was 0.1%. Stock solutions (1 mM) of rat GHRH, somatostatin (Sigma) and GHRP antagonist HwkWfK were made fresh in media and diluted appropriately. The media used in all challenges and washing steps was DME low glucose with 20 mM Hepes, 100 U/ml PS, 10% FBS. Media was warmed to 37° C. and gassed by placing it into the incubator prior to challenge. On day three, the media was discarded and fresh media (approximately 1 ml) added for the first of three washes. After the last wash, the plate was placed back in the incubator for a 15 min pre-incubation. Then cells were washed 2× (with warmed and gassed media) and fresh 0.5 ml media were added for the second 15 min. pre-incubation. After the second pre-incubation cells were washed 2× as above and 0.5 ml of control and test solutions were added for a final 15 min incubation. After this incubation, the media were removed for subsequent GH ELISA. GH ELISA: A two-site ELISA was used to determine rat GH concentration in the media. Briefly, goat anti-rat GH antibody (lot#19164-20) was used to coat Nunc immunoplates overnight. After blocking and washing, standard (rat GH reference preparation: Parlow) and challenge media is diluted 1:20 prior to GH assay were added for a 1 hr room temperature incubation. STATISTICS: The mean for each group was determined and analyzed by one-way analysis of variance with a post-hoc Student-Newman-Keuls. Significance is defined as P<0.05. The EC50 was calculated using a 4-parameter curve-fit program (Kaleidagraph). Three to four independent EC50s were used to derive the mean and SEM.
# [5] = read-out: “Pit” Cell EC50, Table II, prior art compounds, GH release, 15 min incubation
# T1 sequence (O08725 whole entry): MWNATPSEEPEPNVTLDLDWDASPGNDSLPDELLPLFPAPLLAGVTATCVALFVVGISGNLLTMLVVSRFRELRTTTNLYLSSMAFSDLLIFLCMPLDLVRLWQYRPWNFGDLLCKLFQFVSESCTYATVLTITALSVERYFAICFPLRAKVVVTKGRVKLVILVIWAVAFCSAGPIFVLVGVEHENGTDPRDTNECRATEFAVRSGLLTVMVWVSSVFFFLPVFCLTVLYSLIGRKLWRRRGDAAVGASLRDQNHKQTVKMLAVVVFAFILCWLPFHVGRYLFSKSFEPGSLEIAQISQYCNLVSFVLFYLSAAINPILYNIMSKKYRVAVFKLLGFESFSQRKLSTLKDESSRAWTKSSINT
molecule,measurement,setting,value
"CC(C)(N)CC(=O)N[C@@H]1CCc2ccccc2N(Cc2ccc(-c3ccccc3-c3nnn[nH]3)cc2)C1=O [L-692,429, reference compound]",fold less potent than GHRP-6,rat pituitary cell,about 6 fold
same,Rat IV ED50,growth hormone secretion,100 µg
same,EC50,rat pituitary cells [1]; [5],26.2 nM
"CRF: corticotrophin releasing factor (SEEPPISLDLTFHLLREVLEMARAEQLAQQAHSNRKLMEII; ends and bridges not checked; UniProt P06850 154-194, looked up) [reference compound]",rise in ACTH levels,ACTH,3 fold
"C[C@@H](O)CNC(C)(C)CC(=O)N[C@@H]1CCc2ccccc2N(Cc2ccc(-c3ccccc3-c3nnn[nH]3)cc2)C1=O [L-692,585, reference compound]",potency in the rat pituitary cell assay,rat pituitary cell,slightly greater than GHRP-6
same,Rat IV ED50,growth hormone secretion,10 µg
same,body weight gain (in words),[2],no significant weight gain
same,EC50,rat pituitary cells [1]; [5],10.6 nM
"C[C@H](NC(=O)[C@@H](Cc1c[nH]c2ccccc12)NC(=O)[C@@H](N)Cc1c[nH]cn1)C(=O)N[C@@H](Cc1c[nH]c2ccccc12)C(=O)N[C@H](Cc1ccccc1)C(=O)N[C@@H](CCCCN)C(N)=O [GHRP 6, His-D Trp-Ala-Trp-D Phe-Lys-NH2, reference compound] (H-H[dW]AW[dF]K-NH2)",Rat IV ED50,growth hormone secretion,1.0 µg
same,body weight gain (in words),[2],significant body weight gain
same,EC50,"rat pituitary cells [1]; read-out: mean EC50, mean ± SE of independent EC50s",6.2 ± 1.5 nM
same,absorbed orally,[3],~0.3%
same,GH response compared with control,rat pituitary cells [4]; 100 nM,significantly greater than control
same,increase in GH levels over control,rat pituitary cells [4]; 100 nM,3 fold
same,GH release in combination with GHRH,rat pituitary cells [4]; GHRP 100 nM plus GHRH 10 or 100 nM,show synergy with 10 nM GHRH; also recorded: synergistic; also recorded: showed synergy with GHRH
